The text below walks through data of patent publication US10391095B2, “DNA-PK inhibitors” (Vertex Pharmaceuticals Incorporated, priority 2012, dated 2019).

The target of the test is DNA-PK (Homo sapiens, UniProt P78527). The test is described as follows: DNA-PK inhibition assay (radiometric, 33P-ATP). To be noted: 100 μM ATP, competitive tight-binding fit. It counts as biochemical. Put shortly:
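33P transfer from 100 µM ATP to a DNA-PK peptide (0.8 mg/mL) is measured after 45 min, using about 6 nM enzyme activated by 10 µg/mL sheared dsDNA (HEPES pH 7.5, MgCl2, DTT). Filter-bound counts fitted to a competitive tight-binding inhibition model give Ki.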
The term Ki denotes the equilibrium dissociation constant of an inhibitor or competing ligand from its target. Read a low Ki as higher affinity. `CNC(=O)c1ccnc2c([C@H](C)CNc3cc(-c4ccnc(NC5CC5)c4)ncn3)cccc12` [Compound 894] returned a Ki below 30 nM.

`CNC(=O)c1ccnc2c([C@H](C)CNc3cc(-c4cncc(N5CCOCC5)c4)ncn3)cccc12` [Compound 912] returned a Ki below 30 nM. As for `COc1ccccc1[C@H](C)CNc1cc(-c2cnc3c(cnn3C3CCN(C)CC3)c2)ncn1` [Compound 83], the figure is below 30 nM; as for `CNC(=O)c1ccc([C@H](C)CNc2cc(-c3ccc4c(c3)CNC4=O)ncn2)c(OC)c1` [Compound 312], below 30 nM. For the molecule `CNC(=O)c1ccc([C@H](C)CNc2cc(-c3ccc(NCCN(C)C)nc3)ncn2)c(OC)c1` [Compound 369], the Ki is below 30 nM. The same measure for `CNC(=O)c1ccnc2c([C@H](C)CNc3cc(-c4ccc(NCC5CC5)nc4)ncn3)cccc12` [Compound 644]: below 30 nM.

With `CNC(=O)c1ccnc2c([C@H](C)CNc3cc(-c4ccc(C(=O)N(C)C)s4)ncn3)cccc12` [Compound 777], the Ki is below 30 nM. As for `COCCn1ncc2cc(-c3cc(NC[C@@H](C)c4ccccc4OC)ncn3)cnc21` [Compound 139], the figure is below 30 nM; as for `CNC(=O)c1ccnc2c([C@H](C)CNc3cc(-c4cnc(N5CCC(O)CC5)nc4)ncn3)cccc12` [Compound 729], below 30 nM; as for `CNc1ncc(-c2cc(NC[C@@H](C)c3ccnc4c3OCC4)ncn2)cn1` [Compound 430], below 30 nM. For `COc1ccccc1CCNc1cc(-c2ccc3c(cnn3C)c2)ncn1` [Compound 79], the Ki is below 30 nM.

Take `COc1ccccc1[C@H](C)CNc1cc(-c2cnc3c(ccn3C)c2)ncn1` [Compound 173]: the Ki is below 30 nM.

As for `C[C@H](CNc1cc(-c2cc(C(F)(F)F)c3ncccc3c2)ncn1)c1ccnc2c1OCCO2` [Compound 557], the inhibition constant (Ki) was below 30 nM.

In turn, `Cc1ccc(-c2cc(NC[C@@H](C)c3cccc4c3OC(CO)C4)ncn2)cn1` (single isomer, unassigned) [Compound 538] gave a Ki below 30 nM. As for `CNC(=O)c1ccnc2c([C@H](C)CNc3cc(-c4ccc(OCCN5CCCC5)cc4)ncn3)cccc12` [Compound 727], the figure is below 30 nM; as for `CNC(=O)c1ccnc2c([C@H](C)CNc3cc(-c4cncc(C#N)c4)ncn3)cccc12` [Compound 868], below 30 nM; as for `CNC(=O)c1c(F)cnc2c([C@H](C)CNc3cc(-c4ccc(NC5CC5)nc4)ncn3)cccc12` [Compound 921], below 30 nM. `CNC(=O)c1ccnc2c([C@H](C)CNc3cc(-c4ccc(N5CCN(C(C)=O)CC5)nc4)ncn3)cccc12` [Compound 614] registered a Ki below 30 nM. Molecule `C[C@H](CNc1cc(-c2cnc3ccccc3c2)ncn1)c1ccnc2c1OCCO2` [Compound 559] came in with a Ki below 30 nM. As for `Cc1ccc(-c2cc(NCC(C)c3ccnc4c3OCC4)ncn2)cn1` (stereo not shown) [Compound 289], the figure is below 30 nM; as for `Cc1ncc(-c2cc(NC[C@@H](C)c3cccc4c(C(F)F)c(F)cnc34)ncn2)cn1` [Compound 813], below 30 nM; as for `CNC(=O)c1ccnc2c([C@H](C)CNc3cc(-c4ccc5c(c4)CNC5=O)ncn3)cccc12` [Compound 758], below 30 nM. As for `CNC(=O)c1ccnc2c([C@H](C)CNc3cc(-c4cc(F)c(F)c(F)c4)ncn3)cccc12` [Compound 873], the figure is below 30 nM; as for `CNC(=O)c1ccc(C(C)CNc2cc(-c3cnc4c(cnn4CCN4CCCC4=O)c3)ncn2)c(OC)c1` (stereo not shown) [Compound 239], below 30 nM.

Turning to `C[C@H](CNc1cc(-c2cnc3[nH]ncc3c2)ncn1)c1ccnc2c1OCC2` [Compound 437], the Ki was below 30 nM. As for `CNC(=O)c1c(F)cnc2c([C@H](C)CNc3cc(-c4cnc(CO)c(OC)c4)ncn3)cccc12` [Compound 920], the figure is below 30 nM; as for `CNC(=O)c1ccnc2c([C@H](C)CNc3cc(-c4ccc(S(C)(=O)=O)cc4)ncn3)cccc12` [Compound 675], below 30 nM. `CC(=O)c1ccc(-c2cc(NC[C@@H](C)c3ccnc4c3OCCO4)ncn2)cc1` [Compound 456] yielded a Ki below 30 nM. The same measure for `COCc1ccc(-c2cc(NC[C@@H](C)c3ccnc4c3OCCO4)ncn2)cc1` [Compound 458]: below 30 nM.

In turn, `CNC(=O)c1c(-n2ccc(C)n2)cnc2c([C@H](C)CNc3cc(-c4ccc(C)nc4)ncn3)cccc12` [Compound 740] showed a Ki below 30 nM. The same measure for `CNC(=O)c1ccnc2c([C@H](C)CNc3cc(-n4ccnc4)ncn3)cccc12` [Compound 743]: below 30 nM; for `CNC(=O)c1c(N(C)C)cnc2c([C@H](C)CNc3cc(-c4ccc(C)nc4)ncn3)cccc12` [Compound 765]: below 30 nM. The same measure for `CNC(=O)c1c(NC)cnc2c([C@H](C)CNc3cc(-c4ccc(C)nc4)ncn3)cccc12` [Compound 764]: below 30 nM; for `CCNc1ncc(-c2cc(NC[C@@H](C)c3cccc4c(C(=O)NC)c(F)cnc34)ncn2)cn1` [Compound 978]: below 30 nM; for `CCOc1ccc(-c2cc(NC[C@@H](C)c3cccc4c(C(=O)NC)c(F)cnc34)ncn2)cn1` [Compound 932]: below 30 nM. As for `CCOc1ncc(-c2cc(NC[C@@H](C)c3ccccc3OC)ncn2)cn1` [Compound 125], the figure is below 30 nM. For the molecule `CNC(=O)c1ccnc2c([C@H](C)CNc3cc(-c4ccc(N(C)CC5CC5)nc4)ncn3)cccc12` [Compound 625], the inhibition constant (Ki) is below 30 nM. The same measure for `C=CCNc1ccc(-c2cc(NC[C@@H](C)c3ccc(C(=O)NC)cc3OC)ncn2)cn1` [Compound 387]: below 30 nM. As for `CNC(=O)c1ccnc2c([C@H](C)CNc3cc(-c4ccc(Nc5cnn(CCOC)c5)nc4)ncn3)cccc12` [Compound 737], the figure is below 30 nM; as for `Cc1ccc(-c2cc(NCCc3ccccc3OC3CC3)ncn2)cn1` [Compound 86], below 30 nM; as for `CNC(=O)c1ccnc2c([C@H](C)CNc3cc(-c4ccc5c(c4)OCCN5C)ncn3)cccc12` [Compound 843], below 30 nM. As for `CCNc1ccc(-c2cc(NC[C@@H](C)c3ccnc4cccnc34)ncn2)cn1` [Compound 514], the figure is below 30 nM; as for `CNC(=O)c1ncnc2c([C@H](C)CNc3cc(-c4ccc(C)nc4)ncn3)cccc12` [Compound 971, (S)—N-methyl-8-(1-((6-(6-methylpyridin-3-yl)pyrimidin-4-yl)amino)propan-2-yl)quinazoline-4-carboxamide], below 30 nM. The molecule `Cc1ccc(-c2cc(NC[C@@H](C)c3ccnc4c3OCC4C)ncn2)cn1` (single isomer, unassigned) [Compound 576] registered a Ki below 30 nM. As for `CNC(=O)c1ccnc2c([C@H](C)CNc3cc(-c4ccc(NCCC(C)O)nc4)ncn3)cccc12` (stereo partly shown) [Compound 709], the figure is below 30 nM; as for `CCOc1ccccc1CCNc1cc(-c2ccc(N3CC[C@@H](O)C3)nc2)ncn1` [Compound 99], below 30 nM. The same measure for `CNC(=O)c1ccnc2c([C@H](C)CNc3cc(-c4cncc(N5CCOCC5)c4)ncn3)ccc(F)c12` [Compound 915]: below 30 nM; for `CNC(=O)c1ccnc2c([C@H](C)CNc3cc(-c4ccnc(C5CC5)c4)ncn3)cccc12` [Compound 911]: below 30 nM. The same measure for `CNC(=O)c1ccnc2c([C@H](C)CNc3cc(-c4ccc(NCc5cocn5)nc4)ncn3)cccc12` [Compound 712]: below 30 nM; for `CNC(=O)c1ccc([C@H](C)CNc2cc(-c3cnc4c(ccn4C4COC4)c3)ncn2)c(OC)c1` [Compound 252]: below 30 nM; for `CNC(=O)c1cc(C)nc2c([C@H](C)CNc3cc(-c4ccc(C)nc4)ncn3)cccc12` [Compound 484]: below 30 nM. The molecule `CC(CNc1cc(-c2cnc3c(cnn3C3CCN(C)CC3)c2)ncn1)c1ccccc1OC1CC1` (stereo not shown) [Compound 145] had an inhibition constant (Ki) below 30 nM. The same measure for `Cc1ccc(-c2cc(NC[C@@H](C)c3cccc4c(C(=O)NCC(F)(F)F)ccnc34)ncn2)cn1` [Compound 546]: below 30 nM; for `CNC(=O)c1ccnc2c([C@H](C)CNc3cc(-c4ccnc(C5CCC5)c4)ncn3)cccc12` [Compound 913]: below 30 nM; for `CNC(=O)c1ccnc2c([C@H](C)CNc3cc(-c4ccc(N(C)C5CCN(C)CC5)nc4)ncn3)cccc12` [Compound 634]: below 30 nM. With `CNC(=O)c1ccnc2c([C@H](C)CNc3cc(-c4ccc(OC(C)(C)C)cc4)ncn3)cccc12` [Compound 755], the Ki is below 30 nM. The same measure for `CCOC(=O)C(C)(C)n1ncc2cc(-c3cc(NCC(C)c4ccc(C(=O)NC)cc4OC)ncn3)cnc21` (stereo not shown) [Compound 276]: below 30 nM; for `COc1ccccc1[C@H](C)CNc1cc(-c2ccc(NC(CO)CO)nc2)ncn1` [Compound 199]: below 30 nM. As for `CNC(=O)c1ccc([C@H](C)CNc2cc(-c3ccc4c(c3)CCN4C)ncn2)c(OC)c1` [Compound 342], the figure is below 30 nM; as for `CNC(=O)c1ccnc2c([C@H](C)CNc3cc(-c4ccc(C)cc4F)ncn3)cccc12` [Compound 805], below 30 nM; as for `COc1sccc1C(C)CNc1cc(-c2cnc3c(cnn3C3CCN(C)CC3)c2)ncn1` (stereo not shown) [Compound 264], below 30 nM. As for `Cc1ncc(-c2cc(NC[C@@H](C)c3cccc4scnc34)ncn2)cn1` [Compound 658], the figure is below 30 nM; as for `CNC(=O)c1c(F)cnc2c([C@H](C)CNc3cc(-c4cnc(C(C)(C)OC)nc4)ncn3)cccc12` [Compound 930], below 30 nM.

Molecule `CCc1ncc(-c2cc(NC[C@@H](C)c3cccc4c(C(=O)NC)ccnc34)ncn2)cn1` [Compound 829] registered a Ki below 30 nM.

With `COc1ccccc1[C@H](C)CNc1cc(-c2ccc(N(C)C)nc2)ncn1` [Compound 255], the Ki is below 30 nM. As for `CNC(=O)c1ccnc2c([C@H](C)CNc3cc(-c4ccnc(N5CCC(O)CC5)c4)ncn3)cccc12` [Compound 819], the figure is below 30 nM; as for `COc1ccc(C(C)CNc2cc(-c3ccc(C)nc3)ncn2)c(N)n1` (stereo not shown) [Compound 642], below 30 nM.
